According to patent publication EP4079301A2, “COMPOSITIONS COMPRISING CANNABIDIOL AND, OPTIONALLY, BISABOLOL” (Symrise AG, priority 2021, dated 2022):

How the values were obtained:
Assay type in all cases: cell-based
Beta-endorphin = Beta-endorphin immunostaining of explant skin sections with image analysis; settings: for Beta-endorphin in the epidermis (% surface), Average: image analysis
Protocol: (§1) On day 0 (D0), D1, D4, D5 and D7, the product P was topically applied on the basis of 2 mg/cm^2 (± 2µL per explant) and spread using a small spatula. […] The culture medium was half renewed (1 ml per well) on D1, D4, D5 and D7.
(§2) On day 0 (D0), the 3 explants from the batch T0 were collected and cut into 2 parts: half was fixed in formalin buffered solution and half was frozen at -80°C. On D5 and D9, the 3 explants of each batch were collected and processed in the same way than on day 0; the fourth explants were kept frozen at -80°C. The culture media of all explants were collected on D1, D4, D5, D7 (1 ml per explant) and on day 9 (2 ml per explant) and stored at -20°C for cortisol dosage.
(§3) After fixation for 24 hours in buffered formalin solution, the samples were dehydrated and impregnated in paraffin using a Leica PEARL dehydration automat. The samples were then paraffin-embedded using a Leica EG 1160 embedding station. 5-µm-thick sections of formol fixed paraffin-embedded (FFPE) skin sections were realized using a Leica RM 2125 Minot-type microtome, and the sections were then mounted on Superfrost® Plus glass slides. The frozen samples were cut into 7-µm-thick sections using a Leica CM 3050 cryostat. Sections were then mounted on Superfrost® plus silanized glass slides. Microscopical observations were realized using a Leica DMLB, a BX43 or BX63 Olympus microscope. Pictures were digitized with an Olympus DP72 or DP74 camera and the cellSens dimension data storing software (Olympus).
The immunostaining was assessed by microscopical observation and image analysis.
The images analyses were performed on all the images of each batch, according to the following method using cellSens software. The process is illustrated in Figure 2. For each batch of explants, the percentage of the region of interest covered by the staining (stained surface percentage) is determined by image analysis according to the previously described process.
The stained surface percentage (Surf%) for each treatment was compared to the untreated condition => P vs T.

Cortisol = Cortisol competitive ELISA on explant culture media; settings: for Cortisol (ng/mL), Mean: released in BEM culture medium
Protocol: as §1, §2
Cortisol competitive assay was performed with human Cortisol ELISA kit (Enzo life sciences, ref. 25-0358-ADI-901-071). According to provider's guidelines, the culture media were diluted at 1/200 and the Cortisol standards were incubated for 2 hours at room temperature with a monoclonal antibody specific to Cortisol in a sample or an alkaline phosphatase molecule which has Cortisol covalently attached to it. […] The intensity of the bound yellow color is inversely proportional to the concentration of Cortisol in either standards or samples. Absorbance at 405 nm was measured using the M200Pro Tecan microplate reader and Magellan7 software. Cortisol assay was performed on culture BEM media on day 5 (pool of D1, D4, D5 culture media) and day 9 (pool of D7 and D9 culture media). The concentration of cortisol was expressed in ng/ml.

epidermis and dermis = test: Control of cell viability of skin explants (Masson's trichrome staining, Goldner variant); settings: for Cell viability Dermis / Cell viability Epidermis: explants
Protocol: The explants were distributed into 3 batches as follows:
as §1, §2, §3
The observation of the cell viability of the epidermis and dermis was performed after staining of formalin-fixed paraffin- embedded (FFPE) skin sections according to Masson's trichrome, Goldner variant.

[1] = topical 2 mg/cm^2, day 5 (batch PJ5)
[2] = topical 2 mg/cm^2, day 9 (batch PJ9)

C=C(C)[C@@H]1CCC(C)=C[C@H]1c1c(O)cc(CCCCC)cc1O [Cannabidiol]
Effect of product application on beta-endorphin expression (microscopical observation of staining in the epidermis) (Beta-endorphin; D5, compared to the batch TJ5): slight increase
increase of beta-endorphin expression (Beta-endorphin; D5, compared to the batch TJ5, image analysis): 24%
Effect of product application on beta-endorphin expression (microscopical observation of staining in the epidermis) (Beta-endorphin; D9, compared to the batch TJ9): slight increase
increase of beta-endorphin expression (Beta-endorphin; D9, compared to the batch TJ9, image analysis): 30%
Beta-endorphin in the epidermis (% surface), Average (Beta-endorphin; day 5 (batch PJ5)): 33.1 % surface
Beta-endorphin in the epidermis (% surface), Average (Beta-endorphin; day 9 (batch PJ9)): 12.5 % surface
decrease of cortisol (Cortisol; D5, compared to the batch TJ5): 24%
decrease of cortisol (Cortisol; D9, compared to the batch TJ9): 18%
Cortisol (ng/mL), Mean (Cortisol; day 5 (pool of D1, D4, D5), batch PJ5): 246.5 ng/mL
Cortisol (ng/mL), Mean (Cortisol; day 9 (pool of D7 and D9), batch PJ9): 255.1 ng/mL
Effect of product application on cell viability (epidermis and dermis; D5, compared to the batch TJ5): no modification
Effect of product application on cell viability (epidermis and dermis; D9, compared to the batch TJ9): no modification
Cell viability Dermis (epidermis and dermis; [1]): good
Cell viability Epidermis (epidermis and dermis; [1]): good
Cell viability Dermis (epidermis and dermis; [2]): good
Cell viability Epidermis (epidermis and dermis; [2]): fairly good
